Active and inactive are the calls of the source. The calls are words filed in the database; no cut-off is given here.
Experiments:
[1] = system: PC-12; experiment: Cytotoxicity against rat PC12 cells assessed as effect on cell viability at 20 uM measured after 24 hrs by CCK-8 assay; assay type: toxicity, cell-based; conditions: pc-12, 24 h
[2] = system: PC-12; experiment: Neuroprotective activity against MPP+-induced rat PC12 cell death assessed as cell viability at 20 uM preincubated for 1 hr followed by MPP+ addition and measured after 24 hrs by CCK-8 assay (reference value: 57%); assay type: functional; conditions: time 25 hrs, read-out: Activity
[3] = system: PC-12; experiment: Neuroprotective activity against MPP+-induced rat PC12 cell death assessed as increase in cell viability preincubated for 1 hr followed by MPP+ addition and measured after 24 hrs by CCK-8 assay; assay type: functional, cell-based; conditions: dose 1-20 µM, time 25.0 hrs
[4] = system: PC-12; experiment: Neuroprotective activity against MPP+-induced rat PC12 cell death assessed as increase in cell viability at […] preincubated for 1 hr followed by MPP+ addition and measured after 24 hrs by CCK-8 assay; assay type: functional, cell-based; conditions: time 25.0 hrs

**Q.** `C=CC1(C)CC/C=C(/C)CCC(C(C)(C)O)O1` (centres undefined) [NEROPLOMACROL] was tested. Which Activity [1] did it give?
**A.** Non-Toxic

**Q.** And the viability at 20 µM [2]?
**A.** 69%

**Q.** What about the Activity [3] of the same compound?
**A.** Dose-Dependent Effect

**Q.** Which Activity [1] does the source give for `CCC[C@H](O)c1c(OC)cc(=O)oc1C` here?
**A.** Non-Toxic

**Q.** `C=CC(C)(O)C(O)CC(O)C(C)(O)CCC=C(C)C` (centres undefined) was tested. Which Activity [1] did it give?
**A.** Non-Toxic

**Q.** For `CC(=O)[C@H]1CC[C@H]2C3=C[C@H](O)[C@H]4C[C@H](O)CC[C@]4(C)[C@H]3[C@H](O)C[C@]12C`, which Activity [1] is on record?
**A.** Non-Toxic

**Q.** What about the viability at 20 µM [2] of the same compound?
**A.** 68%

**Q.** And the Activity [3]?
**A.** Dose-Dependent Effect

**Q.** With `CC1=C[C@@](C)(O)[C@H](C)O[C@H]1/C(C)=C/C=C/C=C/C=C/[C@@]1(C)C2OC(=O)C1(C)C(=O)C2C` (some centres undefined) as the compound, how does the Activity [1] read?
**A.** Non-Toxic

**Q.** With `CC(C)=CC[C@H](O)[C@@](C)(O)[C@@H](O)C/C=C(/C)[C@H](O)CO` as the compound, how does the Activity [1] read?
**A.** Non-Toxic

**Q.** With `CCC[C@H](O[C@@H]1OC[C@@H](O)[C@H](O)[C@H]1O)c1c(OC)cc(=O)oc1C` as the compound, how does the Activity [1] read?
**A.** Non-Toxic

**Q.** With `CC1=C[C@](C)(O)[C@H](C)O[C@H]1/C(C)=C/C=C/C=C/C=C/[C@@]1(C)C2OC(=O)C1(C)C(=O)C2C` (some centres undefined) as the compound, how does the Activity [1] read?
**A.** Non-Toxic

**Q.** `Cc1ccc([C@@H](C)[C@@H](C[C@@H](O)C(C)(C)O)O[C@@H]2OC[C@@H](O)[C@H](O)[C@H]2O)cc1` was tested. Which Activity [1] did it give?
**A.** Non-Toxic

**Q.** Which results are given for `CC(=O)[C@H]1CC[C@H]2C3=CC(=O)[C@H]4C[C@H](O)CC[C@]4(C)[C@H]3[C@H](O)C[C@]12C`?
**A.** Activity [1]: Non-Toxic; viability at 20 µM [2]: 69%; Activity [3]: Dose-Dependent Effect

**Q.** With `CC/C=C/c1c(OC)cc(=O)oc1CO` as the compound, how does the Activity [1] read?
**A.** Non-Toxic

**Q.** For `CC(=O)[C@H]1CC[C@@]2(O)C3=CC(=O)[C@@H]4C[C@H](O)CC[C@]4(C)[C@H]3C[C@@H](O)[C@]12C`, which Activity [1] is on record?
**A.** Non-Toxic

**Q.** And the viability at 20 µM [2]?
**A.** 72%

**Q.** What about the Activity [3] of the same compound?
**A.** Dose-Dependent Effect

**Q.** `C=C1CC[C@@H](C(C)(C)O)[C@@H]2C[C@H](C)[C@@H](O)C[C@@H]12` was tested. Which Activity [1] did it give?
**A.** Non-Toxic

**Q.** And the viability at 20 µM [2]?
**A.** 72%

**Q.** What about the Activity [3] of the same compound?
**A.** Dose-Dependent Effect

**Q.** With `COc1cc(=O)oc(C)c1/C=C/CCOC(C)=O` as the compound, how does the Activity [1] read?
**A.** Non-Toxic

**Q.** With `C=C1CC[C@H]2[C@](C)(CO)CC[C@@H](O)[C@]2(C)[C@H]1CO` as the compound, how does the Activity [1] read?
**A.** Non-Toxic

**Q.** With `CC(CO)[C@@H]1CC[C@@](C)(O)[C@@H]2CCC(CO)=C[C@H]21` (some centres undefined) as the compound, how does the Activity [1] read?
**A.** Non-Toxic

**Q.** And the viability at 20 µM [2]?
**A.** 69%

**Q.** And the Activity [3]?
**A.** Dose-Dependent Effect

**Q.** What about the Activity [4] of the same compound?
**A.** Active

Reference: ChEMBL document CHEMBL5584358, “Fungal Coculture of Herpotrichia sp. and Trametes versicolor Induces Production of Diverse Metabolites with Anti-Parkinson's Neuroprotective Activity” (J Nat Prod, 2024)
